In patent US20150105252A1, “SUBSTITUTED PYRAZOLES AS HERBICIDES” (E I DU PONT DE NEMOURS AND COMPANY, priority 2013, published 2015):

Tests used:
blackgrass = assay: Test D preemergence; format: in vivo, Alopecurus myosuroides; settings: Preemergence, scale 0 to 100
Text: (§1) Seeds of plant species selected from bluegrass (annual bluegrass, Poa annua), blackgrass (Alopecurus myosuroides), canarygrass (littleseed canarygrass, Phalaris minor), chickweed (common chickweed, Stellaria media), galium (catchweed bedstraw, Galium aparine), bromegrass, downy (downy bromegrass, Bromus tectorum), field poppy (Papaver rhoeas), field violet (Viola arvensis), foxtail, green (green foxtail, Setaria viridis), deadnettle (henbit deadnettle, Lamium amplexicaule), ryegrass, Italian (Italian ryegrass, Lolium multiflorum), kochia (Kochia scoparia), lambsquarters (Chenopodium album), oilseed rape (Brassica napus), pigweed (redroot pigweed, Amaranthus retroflexus), chamomile (scentless chamomile, Matricaria inodora), speedwell (bird's-eye speedwell, Veronica persica), barley, spring (spring barley, Hordeum vulgare), wheat, spring (spring wheat, Triticum aestivum), buckwheat, wild (wild buckwheat, Polygonum convolvulus), mustard, wild (wild mustard, Sinapis arvensis), oat, wild (wild oat, Avena fatua), radish, wild (wild radish, Raphanus raphanistrum), windgrass (Apera spica-venti), Russian thistle (Salsola kali), barley, winter (winter barley, Hordeum vulgare), and wheat, winter (winter wheat, Triticum aestivum) were planted into a silt loam soil and treated preemergence with test chemicals formulated in a non-phytotoxic solvent mixture which included a surfactant.
(§2) At the same time, these species were planted in pots containing Redi-Earth® planting medium (Scotts Company, 14111 Scottslawn Road, Marysville, Ohio 43041) comprising spaghnum peat moss, vermiculite, wetting agent and starter nutrients and treated with postemergence applications of the test chemicals formulated in the same manner. Plants ranged in height from 2 to 18 cm (1- to 4-leaf stage). Treated plants and controls were maintained in a controlled growth environment for 14 to 21 days after which time all species were compared to controls and visually evaluated. Plant response ratings, summarized in Table D, are based on a scale of 0 to 100 where 0 is no effect and 100 is complete control. A dash (-) response means no test result.

bromegrass, downy [1] = assay: Test D preemergence; format: in vivo, Bromus tectorum; settings: Preemergence, scale 0 to 100
Outline: (§3)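 Visual injury scored 0–100 (0 none, 100 complete control) against controls 14–21 days after treatment in a controlled growth environment. Chemicals were formulated in a non-phytotoxic solvent mixture containing surfactant, applied to silt loam soil preemergence or to 1- to 4-leaf plants postemergence.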

field poppy = assay: Test D preemergence; format: in vivo, Papaver rhoeas; settings: Preemergence, scale 0 to 100
Text: as §1, §2

deadnettle [2] = assay: Test D preemergence; format: in vivo, Lamium amplexicaule; settings: Preemergence, scale 0 to 100
Text: as §1, §2

galium = assay: Test D postemergence; format: in vivo, Galium aparine; settings: scale 0 to 100
Outline: as §3

bromegrass, downy [3] = assay: Test D postemergence; format: in vivo, Bromus tectorum; settings: scale 0 to 100
Text: as §1, §2

foxtail, green = assay: Test D postemergence; format: in vivo, Setaria viridis; settings: scale 0 to 100
Text: as §1, §2

deadnettle [4] = assay: Test D postemergence; format: in vivo, Lamium amplexicaule; settings: scale 0 to 100
Outline: as §3

ryegrass, Italian = assay: Test D postemergence; format: in vivo, Lolium multiflorum; settings: scale 0 to 100
Outline: as §3

kochia = assay: Test D postemergence; format: in vivo, Kochia scoparia; settings: scale 0 to 100
Text: as §1, §2

lambsquarters = assay: Test D postemergence; format: in vivo, Chenopodium album; settings: scale 0 to 100
Outline: as §3

pigweed = assay: Test D postemergence; format: in vivo, Amaranthus retroflexus; settings: scale 0 to 100
Outline: as §3

CCCc1cc(C(=O)NC2CC2)nn1Cc1cc(C(F)(F)F)nn1C [Compound 202]
Plant response rating, Blackgrass (blackgrass; 31 g ai/ha): 5 | Plant response rating, Blackgrass (blackgrass; 62 g ai/ha): 35 | Plant response rating, Blackgrass (blackgrass; 125 g ai/ha): 75 | Plant response rating, Blackgrass (blackgrass; 250 g ai/ha): 80 | Plant response rating, Bromegrass, Downy (bromegrass, downy [1]; 31 g ai/ha): 25 | Plant response rating, Bromegrass, Downy (bromegrass, downy [1]; 62 g ai/ha): 35 | Plant response rating, Bromegrass, Downy (bromegrass, downy [1]; 125 g ai/ha): 35 | Plant response rating, Bromegrass, Downy (bromegrass, downy [1]; 250 g ai/ha): 50 | Plant response rating, Field Poppy (field poppy; 62 g ai/ha): 100 | Plant response rating, Field Poppy (field poppy; 125 g ai/ha): 100 | Plant response rating, Field Poppy (field poppy; 250 g ai/ha): 100 | Plant response rating, Deadnettle (deadnettle [2]; 31 g ai/ha): 100 | Plant response rating, Deadnettle (deadnettle [2]; 62 g ai/ha): 100 | Plant response rating, Deadnettle (deadnettle [2]; 125 g ai/ha): 100 | Plant response rating, Deadnettle (deadnettle [2]; 250 g ai/ha): 100 | Galium plant response rating (galium; Postemergence, 31 g ai/ha): 70 | Galium plant response rating (galium; Postemergence, 125 g ai/ha): 70 | Galium plant response rating (galium; Postemergence, 250 g ai/ha): 75 | Galium plant response rating (galium; postemergence, 62 g ai/ha): 70 | Bromegrass, Downy plant response rating (bromegrass, downy [3]; Postemergence, 31 g ai/ha): 25 | Bromegrass, Downy plant response rating (bromegrass, downy [3]; Postemergence, 125 g ai/ha): 35 | Bromegrass, Downy plant response rating (bromegrass, downy [3]; Postemergence, 250 g ai/ha): 35 | Bromegrass, Downy plant response rating (bromegrass, downy [3]; postemergence, 62 g ai/ha): 25 | Foxtail, Green plant response rating (foxtail, green; Postemergence, 31 g ai/ha): 20 | Foxtail, Green plant response rating (foxtail, green; Postemergence, 125 g ai/ha): 20 | Foxtail, Green plant response rating (foxtail, green; Postemergence, 250 g ai/ha): 30 | Foxtail, Green plant response rating (foxtail, green; postemergence, 62 g ai/ha): 20 | Deadnettle plant response rating (deadnettle [4]; Postemergence, 31 g ai/ha): 55 | Deadnettle plant response rating (deadnettle [4]; Postemergence, 125 g ai/ha): 60 | Deadnettle plant response rating (deadnettle [4]; Postemergence, 250 g ai/ha): 65 | Deadnettle plant response rating (deadnettle [4]; postemergence, 62 g ai/ha): 55 | Ryegrass, Italian plant response rating (ryegrass, Italian; Postemergence, 31 g ai/ha): 10 | Ryegrass, Italian plant response rating (ryegrass, Italian; Postemergence, 125 g ai/ha): 10 | Ryegrass, Italian plant response rating (ryegrass, Italian; Postemergence, 250 g ai/ha): 15 | Ryegrass, Italian plant response rating (ryegrass, Italian; postemergence, 62 g ai/ha): 10 | Kochia plant response rating (kochia; Postemergence, 31 g ai/ha): 70 | Kochia plant response rating (kochia; Postemergence, 125 g ai/ha): 75 | Kochia plant response rating (kochia; Postemergence, 250 g ai/ha): 85 | Kochia plant response rating (kochia; postemergence, 62 g ai/ha): 70 | Lambsquarters plant response rating (lambsquarters; Postemergence, 31 g ai/ha): 50 | Lambsquarters plant response rating (lambsquarters; Postemergence, 125 g ai/ha): 60 | Lambsquarters plant response rating (lambsquarters; Postemergence, 250 g ai/ha): 80 | Lambsquarters plant response rating (lambsquarters; postemergence, 62 g ai/ha): 50 | Pigweed plant response rating (pigweed; Postemergence, 31 g ai/ha): 70 | Pigweed plant response rating (pigweed; Postemergence, 125 g ai/ha): 80 | Pigweed plant response rating (pigweed; Postemergence, 250 g ai/ha): 85 | Pigweed plant response rating (pigweed; postemergence, 62 g ai/ha): 70

CCc1cc(C(=O)NCC(F)(F)F)nn1Cc1ccnc(SC(F)(F)F)c1 [Compound 214]
Plant response rating, Blackgrass (blackgrass; 31 g ai/ha): 35 | Plant response rating, Blackgrass (blackgrass; 62 g ai/ha): 75 | Plant response rating, Blackgrass (blackgrass; 125 g ai/ha): 90 | Plant response rating, Blackgrass (blackgrass; 250 g ai/ha): 100 | Plant response rating, Bromegrass, Downy (bromegrass, downy [1]; 31 g ai/ha): 15 | Plant response rating, Bromegrass, Downy (bromegrass, downy [1]; 62 g ai/ha): 25 | Plant response rating, Bromegrass, Downy (bromegrass, downy [1]; 125 g ai/ha): 35 | Plant response rating, Bromegrass, Downy (bromegrass, downy [1]; 250 g ai/ha): 80 | Plant response rating, Field Poppy (field poppy; 62 g ai/ha): 100 | Plant response rating, Field Poppy (field poppy; 125 g ai/ha): 100 | Plant response rating, Field Poppy (field poppy; 250 g ai/ha): 100 | Plant response rating, Deadnettle (deadnettle [2]; 31 g ai/ha): 90 | Plant response rating, Deadnettle (deadnettle [2]; 62 g ai/ha): 100 | Plant response rating, Deadnettle (deadnettle [2]; 125 g ai/ha): 100 | Plant response rating, Deadnettle (deadnettle [2]; 250 g ai/ha): 100 | Galium plant response rating (galium; Postemergence, 31 g ai/ha): 80 | Galium plant response rating (galium; Postemergence, 125 g ai/ha): 80 | Galium plant response rating (galium; Postemergence, 250 g ai/ha): 100 | Galium plant response rating (galium; postemergence, 62 g ai/ha): 80 | Bromegrass, Downy plant response rating (bromegrass, downy [3]; Postemergence, 31 g ai/ha): 15 | Bromegrass, Downy plant response rating (bromegrass, downy [3]; Postemergence, 125 g ai/ha): 20 | Bromegrass, Downy plant response rating (bromegrass, downy [3]; Postemergence, 250 g ai/ha): 20 | Bromegrass, Downy plant response rating (bromegrass, downy [3]; postemergence, 62 g ai/ha): 15 | Foxtail, Green plant response rating (foxtail, green; Postemergence, 31 g ai/ha): 15 | Foxtail, Green plant response rating (foxtail, green; Postemergence, 125 g ai/ha): 35 | Foxtail, Green plant response rating (foxtail, green; Postemergence, 250 g ai/ha): 60 | Foxtail, Green plant response rating (foxtail, green; postemergence, 62 g ai/ha): 15 | Deadnettle plant response rating (deadnettle [4]; Postemergence, 31 g ai/ha): 50 | Deadnettle plant response rating (deadnettle [4]; Postemergence, 125 g ai/ha): 60 | Deadnettle plant response rating (deadnettle [4]; Postemergence, 250 g ai/ha): 70 | Deadnettle plant response rating (deadnettle [4]; postemergence, 62 g ai/ha): 50 | Ryegrass, Italian plant response rating (ryegrass, Italian; Postemergence, 31 g ai/ha): 10 | Ryegrass, Italian plant response rating (ryegrass, Italian; Postemergence, 125 g ai/ha): 20 | Ryegrass, Italian plant response rating (ryegrass, Italian; Postemergence, 250 g ai/ha): 45 | Ryegrass, Italian plant response rating (ryegrass, Italian; postemergence, 62 g ai/ha): 10 | Kochia plant response rating (kochia; Postemergence, 31 g ai/ha): 70 | Kochia plant response rating (kochia; Postemergence, 125 g ai/ha): 80 | Kochia plant response rating (kochia; Postemergence, 250 g ai/ha): 85 | Kochia plant response rating (kochia; postemergence, 62 g ai/ha): 70 | Lambsquarters plant response rating (lambsquarters; Postemergence, 31 g ai/ha): 65 | Lambsquarters plant response rating (lambsquarters; Postemergence, 125 g ai/ha): 80 | Lambsquarters plant response rating (lambsquarters; Postemergence, 250 g ai/ha): 90 | Lambsquarters plant response rating (lambsquarters; postemergence, 62 g ai/ha): 65 | Pigweed plant response rating (pigweed; Postemergence, 31 g ai/ha): 90 | Pigweed plant response rating (pigweed; Postemergence, 125 g ai/ha): 90 | Pigweed plant response rating (pigweed; Postemergence, 250 g ai/ha): 95 | Pigweed plant response rating (pigweed; postemergence, 62 g ai/ha): 90
